# Tested on: Sprague-Dawley rats
# Experiment: Neurobehavioral testing of nerve block, cooling-triggered local anesthesia
# Assay type: in vivo
# Details: injected, 15 mg/mL in sterile saline
# Source text: Nile Red- or bupivacaine-loaded gels are implanted in adult Sprague-Dawley rats alongside a wireless temperature probe. Stability are characterized using dye-loaded formulations, with animals imaged daily to determine the extent to which the dye leaks from the gelled implant; quantitative data are derived from depletion of the Nile Red fluorescence signal. To characterize release, rats implanted with dye-loaded formulations are subjected to a cooling stimulus (ice applied to the skin while tissue temperature is remotely monitored), and subsequently imaged to determine the extent to which cooling triggers release of the sequestered compound in vivo as observed by decrease in the depot fluorescence intensity. Multiple cycles of cooling are performed (with a 24-hour recovery period between cycles) until no significant change in the fluorescence signal from the depot is observed. […] The difference between the duration of nerve blocks due to injection of bupivacaine solution and the duration of blocks caused by cooling-triggered release from an implanted device is determined. To investigate tissue response to the implanted devices, after the animals are sacrificed the tissue surrounding the sciatic nerve is removed, processed for histology (H&E staining), and analyzed via optical microscopy.
smiles,measurement,value
CCCCN1CCCCC1C(=O)Nc1c(C)cccc1C (stereo not shown) [bupivacaine],baseline nerve block duration,~200 min
